Tests used:
RecG [1] = target: T1, RecG (Thermotoga maritima, UniProt Q9WY48); experiment: Steady-state ATPase rate measurements with phosphate biosensor MDCC-PBP; format: biochemical; settings: for K m / k cat: 20°C, 10 nM RecG, 500 nM DNA junction (A40:B40)
T1 construct: made in house
T1 sequence (Q9WY48 1-780): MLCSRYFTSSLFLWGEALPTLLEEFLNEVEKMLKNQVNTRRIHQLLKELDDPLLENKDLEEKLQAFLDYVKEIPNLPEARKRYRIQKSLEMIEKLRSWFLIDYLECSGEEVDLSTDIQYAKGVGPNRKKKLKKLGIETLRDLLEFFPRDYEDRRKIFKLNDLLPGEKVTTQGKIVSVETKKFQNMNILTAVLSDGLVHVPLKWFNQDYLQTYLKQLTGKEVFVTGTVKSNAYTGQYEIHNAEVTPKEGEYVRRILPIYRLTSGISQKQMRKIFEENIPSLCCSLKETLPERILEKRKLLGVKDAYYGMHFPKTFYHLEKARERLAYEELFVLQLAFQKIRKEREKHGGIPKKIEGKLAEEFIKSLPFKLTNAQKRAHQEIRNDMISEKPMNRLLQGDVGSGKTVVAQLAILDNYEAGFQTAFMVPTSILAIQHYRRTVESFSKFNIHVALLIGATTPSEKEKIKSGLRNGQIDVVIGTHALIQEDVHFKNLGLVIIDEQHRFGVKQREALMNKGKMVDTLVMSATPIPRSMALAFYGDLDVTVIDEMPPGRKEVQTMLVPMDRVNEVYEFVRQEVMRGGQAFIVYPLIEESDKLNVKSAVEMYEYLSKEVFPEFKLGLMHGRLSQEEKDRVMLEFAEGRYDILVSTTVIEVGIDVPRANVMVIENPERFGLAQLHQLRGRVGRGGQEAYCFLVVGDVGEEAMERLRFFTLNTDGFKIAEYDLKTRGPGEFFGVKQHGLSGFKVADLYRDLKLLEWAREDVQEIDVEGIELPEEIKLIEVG
From the text: Steady-state measurements were made to gain an overall assessment of the reaction and the affinities of various nucleotides before investigating the individual steps in the ATPase cycle. A two-strand DNA junction, which contains two 20-bp regions of complementary and non-complementary sequences (A40:B40 Figure 1 and Table S1), was used in all these measurements. This forms a Y-shape structure and RecG translocates one single-stranded arm, but then remains bound to the end of the junction still hydrolyzing ATP [10].
All reactions with RecG and DNA were done at 20°C in a buffer containing 50 mM Tris⋅acetate (pH 8.0), 30 mM potassium acetate, 3 mM magnesium acetate and 1 mM DTT. ATPase measurements using MDCC-PBP were taken in the presence of a Pi mop, as described above. Steady-state ATPase measurements were taken in a solution (60 µl) at 20°C, containing 10 nM RecG, 500 nM DNA junction (A40∶B40, see Table S1) and 10 µM MDCC-PBP with varying nucleotide concentrations as substrate or inhibitor [23].

RecG [2] = target: T1, RecG; experiment: Phosphate-water oxygen exchange during hydrolysis; format: biochemical; settings: for k +3 /k −2: γ-18O3 nucleotide, 25°C
From the text: In order to get information about the reverse of cleavage step 2 (scheme in Figure 2A), phosphate-water oxygen exchange measurements were done using (γ-^18O3)mantATP. Intermediate exchange can occur between terminal oxygens of the nucleotide and water during hydrolysis, giving information about the value of k +3 /k −2, as previously described. In this case, (γ-^18O3)mantATP was used as substrate and partial hydrolysis occurred in the presence of RecG⋅DNA, as described in the materials and methods section. The Pi had very similar distribution of oxygen-18 as with (γ-^18O3)mantATP, consistent with essentially little reversal of the cleavage step (k +3 /k −2≥9). This is consistent with a rapid release of Pi.
For intermediate exchange during ATP hydrolysis, 0.5 µM RecG and 1 mM (γ-^18O3)ATP or (γ-^18O3)mantATP were incubated for 10 min (+1 µM DNA A40∶B40, Table S1) or 20 min (- DNA) at 25°C in a volume of 100 µl in the buffer described below. Pi was analyzed for distribution of different ^18O-labeled species on a mass spectrometer as described previously, [37] except that during purification, the ^18O-labeled Pi was detected by MDCC-PBP, rather than radioactive tracers.
Supplementary file pone.0038270.s005.pdf: Table S2 Oxygen exchange during ATP or mantATP hydrolysis by RecG: distributions of oxygen-18 in the Pi product. Experiments were performed as described in Materials and Methods. The data were corrected for isotopic enrichment of the starting nucleotide, 93% for (γ-^18O3)mantATP and 98% for (γ-^18O3) ATP. […] Each distribution is the average of three mass spectral assays. Thus the distributions are for the product Pi as though the starting enrichment was 100%. In all cases there was very little oxygen exchange as shown by the large peak of (^18O3)Pi, in which all three γ-oxygens of ATP are retained. The distributions were then used to compute the ratio of rate constants for Pi release (k +3) and on-enzyme ATP resynthesis (k −2) as in Figure 2 [14], [37].

RecG [3] = target: T1, RecG; experiment: Titrations of RecG into fluorescent nucleotides in the absence of DNA; format: binding
Protocol: The two phases of this fluorescence increase with excess RecG⋅DNA would therefore relate to formation of bound mantATP (1.5-fold intensity increase relative to free nucleotide) and bound mantADP (4.9-fold). This interpretation was supported by titrations of RecG into the fluorescent nucleotides in the absence of DNA.
Steady-state fluorescence was measured using a Cary Eclipse fluorimeter (Varian) with a xenon light source. Absorbance spectroscopy was performed using a Beckman DU640 spectrophotometer.

| Compound | K m (RecG [1]) | k cat (RecG [1]) | (18O1)Pi in product Pi (RecG [2]; DNA present) [%] | (18O2)Pi in product Pi (RecG [2]; DNA present) [%] | (18O3)Pi in product Pi (RecG [2]; DNA present) [%] | k +3 /k −2 (RecG [2]; DNA present (A40∶B40)) | (18O1)Pi in product Pi (RecG [2]; no DNA) [%] | (18O2)Pi in product Pi (RecG [2]; no DNA) [%] | (18O3)Pi in product Pi (RecG [2]; no DNA) [%] | k +3 /k −2 (RecG [2]; no DNA) | lower ATPase activity than ATP (RecG [1]; mantATP vs ATP) [fold] | increase in fluorescence on titration with RecG (RecG [3]) [fold] |
| --- | --- | --- | --- | --- | --- | --- | --- | --- | --- | --- | --- | --- |
| Nc1ncnc2c1ncn2[C@@H]1O[C@H](COP(=O)(O)OP(=O)(O)OP(=O)(O)O)[C@@H](O)[C@H]1O [ATP] | 9 (±2) µM | 8.3 (±1.7) s^−1 | 2.8 | 2.3 | 94.9 | 18 | 6.1 | 4.0 | 89.9 | 9.0 | – | – |
| CNc1ccccc1C(=O)O[C@H]1[C@@H](O)[C@H](n2cnc3c(N)ncnc32)O[C@@H]1COP(=O)(O)OP(=O)(O)OP(=O)(O)O [mantATP, 2′(3′)-O-(N-methylanthraniloyl)ATP] | 1.9 (±0.6) µM | 0.3 (±0.1) s^−1 | 0.4 | 7.5 | 92.1 | 8.7 | 0.4 | 7.0 | 92.6 | 9.5 | 30 | 1.3 |
